Laboratory results: paper PMC6151825, “Identification of Novel Bisbenzimidazole Derivatives as Anticancer Vacuolar (H^+)-ATPase Inhibitors” (Molecules : A Journal of Synthetic Chemistry and Natural …, 2017)

How the values were obtained:
A2780 cells = test: MTS cell viability assay, A2780; assay type: cell-based; details: Homo sapiens, cisplatin-sensitive ovarian cancer cell line, 48 h exposure, read-out: IC50 ± SD, A2780
Source text: (§1) Our research group is extensively involved in studying the role of vacuolar (H^+)-ATPase in breast as well as ovarian cancer cell lines. We examined the antiproliferative activity of the novel bisbenzimidazole derivatives (2a–e) in selected human breast cancer cell lines, MDA-MB-231 (ATCC, HTB-26), MDA-MB-468 (ATCC, HTB-132), MCF-7 (ATCC, HTB-22), and the normal breast epithelial cell line, MCF10A. We also used the cisplatin-sensitive A2780, PA-1 (ATCC, CRL 1572), and the cisplatin-resistant Cis-A2780 ovarian cancer cell lines. A potent V-ATPase inhibitor, Bafilomycin A1 (Baf A1), was used as the positive control. We employed the CellTiter 96 AQueous One solution cell proliferation assay (MTS; Promega) to measure the in vitro cell viability of the cells.
(§2) We studied the antiproliferative activity of an initial hit (compound V), and bisbenzimidazole analogs 2a–e in the selected human breast cancer cell lines MDA-MB-231 (ATCC, HTB-26), MDA-MB-468 (ATCC, HTB-132), MCF-7 (ATCC, HTB-22) and the normal breast epithelial cell line, MCF10A, and the ovarian cancer cell lines, A2780, Cis-A2780, and PA-1 (ATCC, CRL 1572). Human breast cancer cell lines and the human ovarian cancer cell line (PA-1) were purchased from ATCC (American Type Culture Collection, Manassas, VA, USA). The cisplatin-sensitive human ovarian carcinoma cell line, A2780, was obtained from Sigma-Aldrich. The cisplatin-resistant human ovarian cell line, Cis-A2780, was produced in our laboratory, as described in the literature. MDA-MB-231, MDA-MB-468, MCF7, and PA-1 were cultured in the MEM medium (Gibco—Life Technologies, Carlsbad, CA, USA). For the MCF-7 cell line, a final concentration of 0.01 mg/mL human recombinant insulin was added to the media. The normal breast epithelial cell line, MCF-10A, was cultured in complete MEBM (Lonza/Clonetics, Walkersville, MD, USA), as recommended by ATCC. A2780, Cis-A2780 cell lines were cultured in RPMI 1640 medium (Invitrogen, Carlsbad, CA, USA). All media were supplemented with 10% (v/v) heat-inactivated fetal bovine serum (Biowest LLC, Riverside, MO, USA), 100 U/mL penicillin G and 100 U/mL streptomycin (Sigma Aldrich, St. Louis, MO, USA). Cultures were maintained at 37 °C in a humidified atmosphere containing 5% CO2 and were passaged by trypsinization after reaching 80–90% confluence.
(§3) CellTiter 96 AQueous One Solution cell proliferation assay (MTS) was used to measure the in vitro cell viability of cells, and the MTS purchased from Promega (Madison, WI, USA). Cells (5 × 10^3) were seeded into each well of 96-well plates and incubated overnight. Dimethyl Sulfoxide (DMSO) stock solutions of the compounds (V, 2a–e) were diluted in corresponding media and exposed to different concentrations for 48 h. All three independent experiments were performed in quadruplicates. Untreated cells were used as a negative control and data were presented as the mean ± standard deviation (S.D.). The absorbances at 492 nm were measured using a Microplate Reader (Synergy HT, Biotek Instruments, Winooski, VT, USA). The compound concentration that inhibited cell growth by 50% of the untreated control (IC50) was calculated from the dose response curves constructed by plotting percentages of cell viability versus drug concentrations using nonlinear regression analysis by GraphPad Prism Software 7 (GraphPad Software, San Diego, CA, USA).

MDA-MB-468 cells = test: MTS cell viability assay, MDA-MB-468; assay type: cell-based, human; details: for IC50: Homo sapiens, MDA-MB-468, triple-negative breast cancer cell line, 48 h exposure, MTS, read-out: IC50 ± SD, MDA-MB-468
Source text: as §1, §2, §3

V-ATPase = test: Proton pump activity, acridine orange fluorescence quenching in MDA-MB-231 cells; assay type: cell-based, human; details: 20 min incubation, relative to untreated control
Source text: Since our hit compound (V) has been identified by the literature known V-ATPases, we hypothesized that these newly synthesized bisbenzimidazole derivatives (2a–e) will work as proton pump inhibitors (PPIs). To neutralize the acidic microenvironment, PPIs have been used to target the V-ATPase pumps present on the cell membrane. […] Therefore, we selected efficacious anticancer agents for the proton pump activity. We performed the standard proton pump activity using the acridine orange (AO) fluorescence quenching method. We selected two highly efficacious compounds (2d and 2e) and our initial hit (V) for proton pump activity. Baf A1 is a known V-ATPase inhibitor and is used as a positive control. The proton pump activity of cells was measured as a decrease in the fluorescence intensity per min. The activity of cells in the presence of Baf A1 and the potent compounds (V, 2d, and 2e) was calculated as a percentage of the untreated control. The values represented are mean values of duplicate measurements (Figure 10).
The proton pump activity was assessed by using the AO fluorescence quenching method. Bafilomycin A1 (Baf A1), AO, and nigericin were purchased from Sigma-Aldrich. Hank’s Balanced Salt Solution (HBSS) was purchased from Gibco-Life Technologies (Carlsbad, CA, USA). Human breast cancer MDA-MB-231 (ATCC, HTB-26) cells were washed twice with Hank’s Balanced Salt Solution (HBSS). The cells were re-suspended at a density of 5 × 10^6 cells per mL in the same buffer and placed on ice. H^+ uptake was initiated by the addition of MDA-MB-231 cells (10 μL; […]) to pre-warmed HBSS (2.4 mL) containing AO (6 μL; 30 μM) and placed in a cuvette. AO fluorescence was measured at an excitation wavelength of 495 nm and an emission wavelength of 540 nm using the LS-50B Luminescence Spectrometer (Perkin Elmer, Software: FL WinLab, Version 4.00.03). Nigericin (6 μL; 6 μM) was added to collapse the pH gradient and unquench the AO fluorescence (See Supplementary Figure S1: 1a and 1b). […] A decrease in the fluorescence intensities per min of Baf A1 and the potent compounds (V, 2d, and 2e) was calculated and is expressed as a percentage of the control (mean ± SD of two independent experiments) (Figure 10).
Figure 10 Effect of V-ATPase inhibitors on proton pump activity. Cells (MDA-MB-231) were subjected to acridine orange (AO) fluorescence quenching assay in the presence and absence of Baf A1 (1 μM) and potent compounds (V, 2d, and 2e; 10 μM). Fluorescence intensity at an excitation of 495 nm and an emission of 540 nm was quantified. Decrease in fluorescence intensity per min was calculated as percentage relative to control (mean ± SD; n = 2).

Cis-A2780 cells = test: MTS cell viability assay, Cis-A2780; assay type: cell-based; details: Homo sapiens, cisplatin-resistant ovarian cancer cell line, 48 h exposure, read-out: IC50 ± SD, Cis-A2780
Source text: as §1, §2, §3

PA-1 cells = test: MTS cell viability assay, PA-1; assay type: cell-based; details: Homo sapiens, cisplatin-sensitive ovarian cancer cell line, 48 h exposure, read-out: IC50 ± SD, PA-1
Source text: as §1, §2, §3

MDA-MB-231 cells = test: MTS cell viability assay, MDA-MB-231; assay type: cell-based; details: Homo sapiens, breast cancer cell line, 48 h exposure, read-out: IC50 ± SD, MDA-MB-231
Source text: as §1, §2, §3

MCF7 cells = test: MTS cell viability assay, MCF7; assay type: cell-based; details: Homo sapiens, breast cancer cell line, 48 h exposure, read-out: IC50 ± SD, MCF7
Source text: as §1, §2, §3

MCF10A cells = test: MTS cell viability assay, MCF10A normal breast epithelial cells; assay type: cell-based; details: Homo sapiens, MCF-10A, normal breast epithelial cell line, 48 h exposure, read-out: IC50 ± SD, MCF10A
Source text: as §1, §2, §3

IC50 (A2780 cells) | IC50 (MDA-MB-468 cells) | IC50 (Cis-A2780 cells) | IC50 (MDA-MB-231 cells) | IC50 (MCF7 cells) | melting point | SMILES | inhibition of the H^+-ATPase activity (V-ATPase; 10 μM) | IC50 (PA-1 cells) | IC50 (MCF10A cells) | times less toxic, MCF10A versus MDA-MB-468 (MDA-MB-468 cells; ratio of IC50 in normal MCF10A cells to IC50 in MDA-MB-468 cells) | inhibition of the H^+-ATPase activity (V-ATPase; 1 μM)
3.87 ± 0.09 µM | 720 ± 80 nM | 3.95 ± 0.33 µM | 1020 ± 80 nM | 9.33 ± 0.69 µM | – | CCOc1ccc(-c2nc3cc(-c4nc5cc(N6CCN(C)CC6)ccc5[nH]4)ccc3[nH]2)cc1 [Compound V] | 30% | 1.7 ± 0.21 µM | 1140 ± 130 nM | – | –
11.8 ± 0.01 µM | 5830 ± 230 nM | 12.34 ± 0.02 µM | 4770 ± 430 nM | 13.5 ± 2.14 µM | 171 to 172 °C | CN(C)CCCOc1ccc(-c2nc3ccc(-c4nc5ccc(N6CCN(C)CC6)cc5[nH]4)cc3[nH]2)cc1 [Compound 2b, N,N-Dimethyl-3-(4-(6-(4-methylpiperazin-1-yl)-1H,3'H-[2,5'-bibenzo[d]imidazol]-2'-yl)phenoxy)propan-1-amine] | – | 5.83 ± 0.07 µM | 2950 ± 150 nM | – | –
12.9 ± 0.42 µM | 1170 ± 360 nM | 10.7 ± 0.22 µM | 750 ± 300 nM | – | 197 to 198 °C | CN(C)CCOc1ccc(-c2nc3ccc(-c4nc5ccc(N6CCN(C)CC6)cc5[nH]4)cc3[nH]2)cc1 [Compound 2c, N,N-Dimethyl-2-(4-(6-(4-methylpiperazin-1-yl)-1H,3'H-[2,5'-bibenzo[d]imidazol]-2'-yl)phenoxy)ethanamine] | – | 7.78 ± 0.81 µM | 810 ± 100 nM | – | –
26.5 ± 1.44 µM | 13400 ± 330 nM | 25.2 ± 0.32 µM | 17600 ± 190 nM | 49.3 ± 2.76 µM | 165 to 166 °C | CN1CCC(Oc2ccc(-c3nc4ccc(-c5nc6ccc(N7CCN(C)CC7)cc6[nH]5)cc4[nH]3)cc2)CC1 [Compound 2a, 6-(4-Methylpiperazin-1-yl)-2'-(4-((1-methylpiperidin-4-yl)oxy)phenyl)-1H,3'H-2,5'-bibenzo[d]imidazole] | – | – | 13400 ± 370 nM | – | –
1.97 ± 0.19 µM | 560 ± 50 nM | 3.03 ± 0.18 µM | 2440 ± 330 nM | 22 ± 3.9 µM | 208 to 209 °C | COCCOc1ccc(-c2nc3ccc(-c4nc5ccc(N6CCN(C)CC6)cc5[nH]4)cc3[nH]2)cc1 [Compound 2d, 2'-(4-(2-Methoxyethoxy)phenyl)-6-(4-methylpiperazin-1-yl)-1H,3'H-2,5'-bibenzo[d]imidazole] | 14% | 3.09 ± 0.03 µM | 1550 ± 40 nM | – | –

SMILES | IC50 (A2780 cells) | IC50 (MDA-MB-468 cells) | IC50 (Cis-A2780 cells) | IC50 (MDA-MB-231 cells) | IC50 (MCF7 cells) | melting point | inhibition of the H^+-ATPase activity (V-ATPase; 10 μM) | IC50 (PA-1 cells) | IC50 (MCF10A cells) | times less toxic, MCF10A versus MDA-MB-468 (MDA-MB-468 cells; ratio of IC50 in normal MCF10A cells to IC50 in MDA-MB-468 cells) | inhibition of the H^+-ATPase activity (V-ATPase; 1 μM)
CN1CCN(c2ccc3nc(-c4ccc5nc(-c6ccc(OCCC(C)(C)C)cc6)[nH]c5c4)[nH]c3c2)CC1 [Compound 2e, 2'-(4-(3,3-Dimethylbutoxy)phenyl)-6-(4-methylpiperazin-1-yl)-1H,3'H-2,5'-bibenzo[d]imidazole] | 2.77 ± 0.05 µM | 40 ± 20 nM | 1.34 ± 0.14 µM | 1580 ± 50 nM | 2.02 ± 0.12 µM | 247 to 248 °C | 42% | 2.87 ± 0.15 µM | 1620 ± 140 nM | ~40 times | –
CO/C1=C\C(C)=C\[C@@H](C)[C@@H](O)[C@@H](C)C/C(C)=C/C=C/[C@H](OC)[C@@H]([C@@H](C)[C@@H](O)[C@H](C)[C@@]2(O)C[C@@H](O)[C@H](C)[C@@H](C(C)C)O2)OC1=O [Baf A1, Bafilomycin A1, reference compound] | – | – | 0.008 ± 0.01 µM | 26 ± 20 nM | – | – | – | – | 36 ± 40 nM | – | 25%
